Assay results: patent publication US20230414839A1, “COATED MEDICAL PRODUCT” (HEMOTEQ AG, priority 2020, published 2023)
Read-outs that look alike come from different tables or passages of the source.

Columns and labels:
[1] = cited from earlier work
[2] = preparation and stability of crystal suspensions of microcrystalline rapamycin / everolimus in solutions of different tri-O-acylglycerols (Examples 2, 3); conditions: ethyl acetate/heptane solution; standing and temperature elevation
Description: In the first step, solutions of tri-O-acylglycerols were first prepared in a solvent mixture. Subsequently, the solutions were combined with microcrystals of rapamycin and everolimus to investigate which tri-O-acylglycerols could be used to obtain stable crystal suspensions. The composition of the solvents and solvent mixture varied depending on the active agent used. The solutions and solvent mixtures prepared in the example apply to rapamycin (SIR) and everolimus (EVR). For the preparation of the solutions, an ethyl acetate/heptane solvent mixture was used here as an example.
To prepare the solutions, 770 mg of the respective tri-O-acylglycerol and optionally 150 mg BHT were dissolved in 14 g ethyl acetate (15.6 mL). Then, 57.4 g of n-heptane (84.4 mL) was added. Subsequently, homogenization and filtration were performed. The total volume of the solvent mixture is 100 mL.
To a precisely weighed amount of dry microcrystals of the previously prepared limus active agent, a defined amount of the solutions containing tri-O-acylglycerol and optionally antioxidant is carefully added. It was investigated whether the microcrystals of the limus active agent are not soluble in the solutions and whether suspensions are formed.
To check whether crystal suspension can be prepared, to each 200 mg of rapamycin in the form of microcrystals or 200 mg of everolimus in the form of microcrystals were carefully added 10 mL of one of the solutions 1a) to 1t) at room temperature. Three mixtures of 10 mL of solution for each solution were prepared. After combining, it was tested whether the microcrystals of limus active agents dissolved directly in the solutions. For solutions where there was no immediate dissolution of the microcrystals of the limus active agents, the suspensions of the solutions without antioxidant were allowed to stand for a period of 100 h and tested again to see if the microcrystals of the limus active agents dissolved.
Three mixtures of 10 mL of solution for each solution were prepared. After combining, it was tested whether the microcrystals of limus active agents dissolved directly in these solutions. For solutions where there was no immediate dissolution of the microcrystals of the limus active agents, the suspensions of the solutions without antioxidant were allowed to stand for a period of 100 hours and tested again to see if the microcrystals of the limus active agents dissolved.

[3] = cited from earlier work; remark: listed apart in the source
[4] = crystal suspensions of microcrystalline everolimus in different solvent mixtures (Example 6); type: physicochemical; design: key: +++: good; +/−: average; −−−: poor; conditions: 770 mg trioctanoylglycerol per 100 mL
Description: To prepare the solutions, 770 mg of trioctanoylglycerol was dissolved in the polar solvent. Then the nonpolar solvent was added. It was then homogenized and filtered.
To test whether crystal suspensions could be prepared, 10 mL of each of the solutions was carefully added to 200 mg of everolimus in the form of microcrystals at room temperature. After combining, it was tested whether stable crystal suspensions were obtained.

[5] = non-solvents, rounded values (Table 2)
[6] = polar organic solvents, rounded values (Table 6)
[7] = nonpolar organic solvents (Table 8)
[8] = polar organic solvents (Table 7)
[9] = nonpolar organic solvents, rounded values (Table 4)

## CCCCCCCCC(=O)OCC(COC(=O)CCCCCCCC)OC(=O)CCCCCCCC [Trinonanoylglycerol, trinonanoylglycerol]
[1]
  solubility in water: practically insoluble in water
[2]
  stability of the crystal suspension of microcrystalline everolimus and rapamycin with the tri-O-acylglycerol: remained stable after 24-48 hours and under temperature elevation

## CCCC(C)C [2-Methylpentane]
[3]; [5]
  logKOW: 3.6

## CCCC(C)(C)C [2,2-Dimethylpentane]
[3]; [5]
  logKOW: 3.8

## OCC(O)CO [Glycerin]
[3]; [6]
  logKOW: −1.8

## CCC(C)(C)C [2,2-Dimethylbutane]
[3]; [5]
  logKOW: 3.8

## CCCCCCCC [Octane]
[3]; [5]
  logKOW: 5.2
[3]; [7]
  logKOW: 5.15

## C1CCOC1 [Tetrahydrofuran (THF), Tetrahydrofuran]
[3]; [8]
  logKOW: 0.46
[3]; [6]
  logKOW: +0.5

## CC(C)CC(C)(C)C [2,2,4-Trimethylpentane]
[3]; [5]
  logKOW: 4.1

## CCOC(C)=O [Ethyl acetate]
[3]; [8]
  logKOW: 0.73
[3]; [6]
  logKOW: +0.7

## FC(F)(F)C(F)(F)C(F)(F)C(F)(F)C(F)(F)C(F)(F)F [Tetradecafluorohexane]
[3]; [9]
  logKOW: 5.8

## CCCCCCCC(=O)OCC(COC(=O)CCCCCCC)OC(=O)CCCCCCC [Trioctanoylglycerol, trioctanoylglycerol]
[1]
  solubility in water: practically insoluble in water
[2]
  stability of the crystal suspension of microcrystalline everolimus and rapamycin with the tri-O-acylglycerol: remained stable even after 100 h and under temperature elevation

## CCCOCCC [Dipropyl ether]
[3]; [6]
  logKOW: +2.0

## CCCOC(C)=O [n-Propyl acetate]
[3]; [6]
  logKOW: +1.4

## O [Water]
[3]; polar organic solvents, rounded orientation values (Table 5)
  logKOW: approx. −1.4

## CC1CCCC1 [Methylcyclopentane]
[3]; [5]
  logKOW: 3.4

## CCOc1ccccc1 [Ethoxybenzene]
[3]; [9]
  logKOW: 2.5

## CCC(C)c1ccccc1 (stereo not shown) [2-Phenylbutane]
[3]; [9]
  logKOW: 3.4

## C1CCCCCCCC1 [Cyclononan]
[3]; [5]
  logKOW: 5.1

## C1COCCO1 [1,4-Dioxane]
[3]
  log KOW: about −0.4

## CO[C@H]1C[C@@H]2CC[C@@H](C)[C@@](O)(O2)C(=O)C(=O)N2CCCC[C@H]2C(=O)O[C@H]([C@H](C)C[C@@H]2CC[C@@H](OCCO)[C@H](OC)C2)CC(=O)[C@H](C)/C=C(\C)[C@@H](O)[C@@H](OC)C(=O)[C@H](C)C[C@H](C)/C=C/C=C/C=C/1C [Everolimus, 40-O-(2-hydroxyethyl)rapamycin]
[4]; Acetone/Cyclohexane 10:90 (v/v)
  Crystal suspension: +++
[4]; Acetone/Cyclohexane 30:70 (v/v)
  Crystal suspension: +/−
[4]; Acetone/Cyclohexane 40:60 (v/v)
  Crystal suspension: +/−
[4]; Acetone/Cyclohexane 50:50 (v/v)
  Crystal suspension: −−−
[4]; Acetone/Cyclohexane 60:40 (v/v)
  Crystal suspension: −−−
[4]; Acetone/Heptane 10:90 (v/v)
  Crystal suspension: +++
[4]; Acetone/Heptane 30:70 (v/v)
  Crystal suspension: +/−
[4]; Acetone/Heptane 40:60 (v/v)
  Crystal suspension: +/−
[4]; Acetone/Heptane 50:50 (v/v)
  Crystal suspension: −−−
[4]; Acetone/Heptane 60:40 (v/v)
  Crystal suspension: −−−
[4]; Acetone/Hexane 10:90 (v/v)
  Crystal suspension: +++
[4]; Acetone/Hexane 30:70 (v/v)
  Crystal suspension: +/−
[4]; Acetone/Hexane 40:60 (v/v)
  Crystal suspension: +/−
[4]; Acetone/Hexane 50:50 (v/v)
  Crystal suspension: −−−
[4]; Acetone/Hexane 60:40 (v/v)
  Crystal suspension: −−−
[4]; Ethanol/Cyclohexane 10:90 (v/v)
  Crystal suspension: +++
[4]; Ethanol/Cyclohexane 40:60 (v/v)
  Crystal suspension: +/−
[4]; Ethanol/Cyclohexane 50:50 (v/v)
  Crystal suspension: −−−
[4]; Ethanol/Cyclohexane 60:40 (v/v)
  Crystal suspension: −−−
[4]; Ethanol/Heptane 10:90 (v/v)
  Crystal suspension: +++
[4]; Ethanol/Heptane 40:60 (v/v)
  Crystal suspension: +/−
[4]; Ethanol/Heptane 50:50 (v/v)
  Crystal suspension: −−−
[4]; Ethanol/Heptane 60:40 (v/v)
  Crystal suspension: −−−
[4]; Ethanol/Hexane 10:90 (v/v)
  Crystal suspension: +++
[4]; Ethanol/Hexane 40:60 (v/v)
  Crystal suspension: +/−
[4]; Ethanol/Hexane 50:50 (v/v)
  Crystal suspension: −−−
[4]; Ethanol/Hexane 60:40 (v/v)
  Crystal suspension: −−−
[4]; Ethyl acetate/Cyclohexane 10:90 (v/v)
  Crystal suspension: +++
[4]; Ethyl acetate/Cyclohexane 30:70 (v/v)
  Crystal suspension: +++
[4]; Ethyl acetate/Cyclohexane 40:60 (v/v)
  Crystal suspension: +++
[4]; Ethyl acetate/Cyclohexane 50:50 (v/v)
  Crystal suspension: +/−
[4]; Ethyl acetate/Cyclohexane 60:40 (v/v)
  Crystal suspension: +/−
[4]; Ethyl acetate/Heptane 10:90 (v/v)
  Crystal suspension: +++
[4]; Ethyl acetate/Heptane 30:70 (v/v)
  Crystal suspension: +++
[4]; Ethyl acetate/Heptane 40:60 (v/v)
  Crystal suspension: +++
[4]; Ethyl acetate/Heptane 50:50 (v/v)
  Crystal suspension: +/−
[4]; Ethyl acetate/Heptane 60:40 (v/v)
  Crystal suspension: +/−
[4]; Ethyl acetate/Hexane 10:90 (v/v)
  Crystal suspension: +++
[4]; Ethyl acetate/Hexane 30:70 (v/v)
  Crystal suspension: +++
[4]; Ethyl acetate/Hexane 40:60 (v/v)
  Crystal suspension: +++
[4]; Ethyl acetate/Hexane 50:50 (v/v)
  Crystal suspension: +/−
[4]; Ethyl acetate/Hexane 60:40 (v/v)
  Crystal suspension: +/−
[4]; iso-propanol/Cyclohexane 10:90 (v/v)
  Crystal suspension: +++
[4]; iso-propanol/Cyclohexane 30:70 (v/v)
  Crystal suspension: +/−
[4]; iso-propanol/Cyclohexane 40:60 (v/v)
  Crystal suspension: +/−
[4]; iso-propanol/Cyclohexane 50:50 (v/v)
  Crystal suspension: −−−
[4]; iso-propanol/Cyclohexane 60:40 (v/v)
  Crystal suspension: −−−
[4]; iso-propanol/Heptane 10:90 (v/v)
  Crystal suspension: +++
[4]; iso-propanol/Heptane 30:70 (v/v)
  Crystal suspension: +/−
[4]; iso-propanol/Heptane 40:60 (v/v)
  Crystal suspension: +/−
[4]; iso-propanol/Heptane 50:50 (v/v)
  Crystal suspension: −−−
[4]; iso-propanol/Heptane 60:40 (v/v)
  Crystal suspension: −−−
[4]; iso-propanol/Hexane 10:90 (v/v)
  Crystal suspension: +++
[4]; iso-propanol/Hexane 30:70 (v/v)
  Crystal suspension: +/−
[4]; iso-propanol/Hexane 40:60 (v/v)
  Crystal suspension: +/−
[4]; iso-propanol/Hexane 50:50 (v/v)
  Crystal suspension: −−−
[4]; iso-propanol/Hexane 60:40 (v/v)
  Crystal suspension: −−−

## CC(C)(C)C1CCCCC1 [tert-butylcyclohexane]
[3]; [5]
  logKOW: 4.0

## CCC(=O)O [Propionic acid]
[3]; [8]
  logKOW: 0.32

## CN1CCCC1=O [N-methylpyrrolidone]
[3]; [6]
  logKOW: −0.5

## CCCCC(C)C [2-Methylhexane]
[3]; [5]
  logKOW: 3.7

## C1CCCCCC1 [Cycloheptane]
[3]; [5]
  logKOW: 4

## Clc1ccccc1Cl [o-Dichlorobenzene]
[3]; [9]
  logKOW: 3.4

## Clc1ccccc1 [Chlorobenzene]
[3]
  log KOW: about 2.9
[3]; [9]
  logKOW: 2.9

## CCCCCCCCCC(=O)OCC(COC(=O)CCCCCCCCC)OC(=O)CCCCCCCCC [Tridecanoylglycerol, tridecanoylglycerol]
[2]
  stability of the crystal suspension of microcrystalline everolimus and rapamycin with the tri-O-acylglycerol: remained stable even after 100 h and under temperature elevation

## CC(C)c1ccccc1 [Cumol]
[3]; [9]
  logKOW: 3.4

## CC(C)Cc1ccccc1 [2-Methyl-1-phenylpropane]
[3]; [9]
  logKOW: 3.4

## CCC(C)C(C)C (stereo not shown) [2,3-Dimethylpentane]
[3]; [5]
  logKOW: 3.8

## CCCC(C)=O [Solution 2-Pentanone, 2-Pentanone]
[3]; [8]
  logKOW: 0.84
[3]; [6]
  logKOW: +0.9

## C1CCCCCCCCC1 [Cyclodecane]
[3]; [5]
  logKOW: 5.5

## CCCCCCCCC [Nonan]
[3]; [5]
  logKOW: 5.7
[3]; [7]
  logKOW: 5.65

## CC(C)Cc1ccccc1 [iso-butylbenzene]
[3]; [9]
  logKOW: 4.1

## CCCCCCCCCC [Decan]
[3]; [5]
  logKOW: 6.3
[3]; [7]
  logKOW: 6.25

## CCC(C)C [Isopentane]
[3]; [5]
  logKOW: 3.2

## CCCCCCC [Heptane]
[3]; [5]
  logKOW: 4.5
[3]; [7]
  logKOW: 4.50

## COc1ccccc1 [Anisol]
[3]; [9]
  logKOW: 2.1

## C1CCCC1 [Cyclopentane]
[3]; [5]
  logKOW: 3.0
[3]; [7]
  logKOW: 3.00

## CCc1ccccc1 [Ethylbenzene]
[3]; [9]
  logKOW: 3.2

## COC(C)=O [Methyl acetate]
[3]; [6]
  logKOW: +0.2
